Read-outs that look alike come from different tables or passages of the source. Positions of bridges follow the written chain, without caps; N, C: chain ends. Non-standard residues stand in square brackets, D forms with d. Residues, ends and D or L forms follow the SMILES beside them. Ser(ΨH,HPro) = O=C(O)[C@@H]1COCN1; hCit = NC(=O)NCCCC[C@H](N)C(=O)O; Pip = O=C(O)[C@@H]1CCCCN1; Thz = O=C(O)[C@@H]1CSCN1; Sar = CNCC(=O)O
How the values were obtained:
human MC4R [1] = target: T1, human MC4R (Homo sapiens, UniProt P32245); assay: Functional cAMP assay (CisBio HTRF) in BHK cells expressing human MC4R; type: cell-based; settings: for MC1R/MC4R cAMP EC50 ratio: MC1R cAMP EC50 divided by MC4R cAMP EC50
T1 construct: expressed in transfected cells
Outline: (§1)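 Compound working solutions, 10-fold dilutions from 2 μM at twice final strength, in buffer containing 1 mM IBMX, were incubated 30 min at 25 °C with BHK cells stably carrying human MC4R or MC1R. Accumulated cAMP was then detected by competitive HTRF after 1 h at 25 °C and fitted by non-linear regression.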

human MC1R = target: T2, human MC1R (Homo sapiens, UniProt Q01726); assay: Functional cAMP assay (CisBio HTRF) in BHK cells expressing human MC1R; type: cell-based
T2 construct: expressed in transfected cells
Outline: as §1

human MC4R [2] = target: T1, human MC4R; assay: 125NDP-α-MSH competitive binding to membranes of BHK cells expressing human MC4 receptor (filtration assay)
Outline: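 Displacement of ^125NDP-α-MSH (apx. […] final) was measured by filtration after 2 h at 25 °C, using diluted membranes of stably transfected BHK cells in pH 7.0 HEPES buffer. Compounds spanned 1 μM to 0.001 nM; binding curves were analysed by non-linear regression.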

[3] = BHK cells expressing human MC4R, '>' = highest dose used with no response, read-out: MC4R cAMP EC50
[4] = BHK cells expressing human MC1R, '>' = highest dose used with no response, read-out: MC1R cAMP EC50
[5] = human MC4R, BHK cell membranes, 125NDP-α-MSH radioligand, read-out: MC4R binding Ki

T1 sequence (P32245 whole entry): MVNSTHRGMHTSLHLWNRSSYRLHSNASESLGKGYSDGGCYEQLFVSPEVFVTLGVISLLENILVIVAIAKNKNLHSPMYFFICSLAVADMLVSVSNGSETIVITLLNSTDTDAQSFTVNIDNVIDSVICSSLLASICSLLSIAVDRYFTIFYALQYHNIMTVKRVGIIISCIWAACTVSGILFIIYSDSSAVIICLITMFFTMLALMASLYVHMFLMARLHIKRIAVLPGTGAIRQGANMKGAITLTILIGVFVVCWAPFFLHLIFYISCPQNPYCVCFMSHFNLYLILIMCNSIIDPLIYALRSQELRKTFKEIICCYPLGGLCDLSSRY
T2 sequence (Q01726 whole entry): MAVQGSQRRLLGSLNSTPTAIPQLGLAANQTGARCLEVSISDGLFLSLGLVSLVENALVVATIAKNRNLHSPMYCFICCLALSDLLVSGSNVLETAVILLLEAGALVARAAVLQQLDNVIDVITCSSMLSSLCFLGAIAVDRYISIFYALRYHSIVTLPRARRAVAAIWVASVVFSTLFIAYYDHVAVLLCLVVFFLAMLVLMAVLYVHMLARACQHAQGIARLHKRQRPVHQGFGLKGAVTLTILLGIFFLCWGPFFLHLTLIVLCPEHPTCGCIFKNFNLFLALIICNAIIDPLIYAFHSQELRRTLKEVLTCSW

Row | EC50 (human MC4R [1]; [3]) | MC1R/MC4R cAMP EC50 ratio (human MC4R [1]) | EC50 (human MC1R; [4]) | Ki (human MC4R [2]; [5]) | SMILES | EC50 (human MC4R [1]) | EC50 (human MC1R) | Ki (human MC4R [2])
1 | 0.29 nM | 19 | > 5.5 nM | 0.08 nM | C[C@@H]1NC(=O)[C@@H]2CSSC[C@H](NC(=O)[C@H](CCCNC(=N)N)NC(=O)[C@H](CCCCN)NC(=O)[C@H](CCCCN)NC(=O)[C@H](CCCCN)NC1=O)C(=O)N(C)CC(=O)N[C@@H](Cc1c[nH]cn1)C(=O)N[C@H](Cc1ccccc1)C(=O)N[C@@H](Cc1c[nH]cn1)C(=O)N[C@@H](Cc1c[nH]c3ccccc13)C(=O)N2 [Chem. 74, c[c[Cys-Sar-His-D-Phe-His-Trp-Cys]- Ala-Lys-Lys-Lys-Arg]] (cyclo(AKKKRC[Sar]H[dF]HWC); disulfide 6-12) |  |  | 
2 | 0.15 nM | 58 | 8.65 nM | 0.16 nM | C[C@@H]1NC(=O)[C@@H]2CSSC[C@H](NC(=O)[C@H](Cc3c[nH]c4ccccc34)NC(=O)[C@H](CCCNC(=N)N)NC(=O)[C@@H](Cc3ccccc3)NC(=O)[C@H](Cc3c[nH]cn3)NC1=O)C(=O)N[C@@H](C)C(=O)N[C@@H](Cc1ccc(O)cc1)C(=O)N[C@@H](Cc1ccccc1)C(=O)N[C@@H](CCCCN)C(=O)N[C@@H](Cc1c[nH]c3ccccc13)C(=O)N2 [Chem. 80, c[c[Cys-Ala-His-D-Phe-Arg-Trp-Cys]- Ala-Tyr-Phe-Lys-Trp]] (cyclo(AH[dF]RWCAYFKWC); disulfide 6-12) |  |  | 
3 |  | >5 | > 10 nM | 0.17 nM | C[C@@H]1NC(=O)[C@@H]2CSSC[C@H](NC(=O)[C@H](Cc3c[nH]c4ccccc34)NC(=O)[C@H](CCCCN)NC(=O)[C@H](CCCCN)NC(=O)[C@H](CCCCN)NC1=O)C(=O)N1CCCC[C@H]1C(=O)N[C@@H](Cc1c[nH]cn1)C(=O)N[C@H](Cc1ccccc1)C(=O)N[C@@H](Cc1c[nH]cn1)C(=O)N[C@@H](Cc1c[nH]c3ccccc13)C(=O)N2 [Chem. 83, c[c[Cys-PIP-His-D-Phe-His-Trp-Cys]- Ala-Lys-Lys-Lys-Trp]] (cyclo(AKKKWC[Pip]H[dF]HWC); disulfide 6-12) |  |  | 
4 |  | >20 | > 55 nM | 0.6 nM | C[C@@H]1NC(=O)[C@@H]2CSSC[C@H](NC(=O)[C@H](Cc3c[nH]c4ccccc34)NC(=O)[C@H](CCCCN)NC(=O)[C@H](CCCCN)NC(=O)[C@H](CCCCN)NC1=O)C(=O)N1CCC[C@@H]1C(=O)N[C@@H](Cc1c[nH]cn1)C(=O)N[C@H](Cc1ccccc1)C(=O)N[C@@H](Cc1c[nH]cn1)C(=O)N[C@@H](Cc1c[nH]c3ccccc13)C(=O)N2 [Chem. 98, c[c[Cys-D-Pro-His-D-Phe-His-Trp- Cys]-Ala-Lys-Lys-Lys-Trp]] (cyclo(AKKKWC[dP]H[dF]HWC); disulfide 6-12) |  |  | 
5 | 0.05 nM | >1400 | > 70 nM | 0.06 nM | C[C@@H]1NC(=O)[C@@H]2CSSC[C@H](NC(=O)[C@H](Cc3c[nH]c4ccccc34)NC(=O)[C@H](CCCCN)NC(=O)[C@H](CCCCN)NC(=O)[C@H](CCCCN)NC1=O)C(=O)N1COC[C@H]1C(=O)N[C@@H](Cc1c[nH]cn1)C(=O)N[C@H](Cc1ccccc1)C(=O)N[C@@H](Cc1c[nH]cn1)C(=O)N[C@@H](Cc1c[nH]c3ccccc13)C(=O)N2 [Chem. 103, c[c[Cys-OXA-His-D-Phe-His-Trp- Cys]-Ala-Lys-Lys-Lys-Trp]] (cyclo(AKKKWC[Ser(ΨH,HPro)]H[dF]HWC); disulfide 6-12) |  |  | 

The remaining lines, values behind:

Row | SMILES | EC50 (human MC4R [1]; [3]) | MC1R/MC4R cAMP EC50 ratio (human MC4R [1]) | EC50 (human MC1R; [4]) | Ki (human MC4R [2]; [5]) | EC50 (human MC4R [1]) | EC50 (human MC1R) | Ki (human MC4R [2])
6 | C[C@@H]1NC(=O)[C@@H]2CSSC[C@H](NC(=O)[C@H](CCCNC(=N)N)NC(=O)[C@H](CCCCN)NC(=O)[C@H](CCCCN)NC(=O)[C@H](CCCCN)NC1=O)C(=O)N[C@H](C)C(=O)N[C@@H](Cc1c[nH]cn1)C(=O)N[C@H](Cc1ccccc1)C(=O)N[C@@H](CCCNC(=N)N)C(=O)N[C@@H](Cc1c[nH]c3ccccc13)C(=O)N2 [Chem. 85, c[c[Cys-D-Ala-His-D-Phe-Arg-Trp- Cys]-Ala-Lys-Lys-Lys-Arg]] (cyclo(AKKKRC[dA]H[dF]RWC); disulfide 6-12) | 0.01 nM | 22 | 0.22 nM | 0.02 nM |  |  | 
7 | C[C@@H]1NC(=O)[C@H](C)NC(=O)[C@H](C)NC(=O)[C@@H]2CSSC[C@H](NC(=O)[C@H](Cc3c[nH]c4ccccc34)NC(=O)[C@H](C)NC1=O)C(=O)N[C@@H](C)C(=O)N[C@@H](Cc1c[nH]cn1)C(=O)N[C@H](Cc1ccccc1)C(=O)N[C@@H](CCCNC(=N)N)C(=O)N[C@@H](Cc1c[nH]c3ccccc13)C(=O)N2 [Chem. 87, c[c[Cys-Ala-His-D-Phe-Arg-Trp-Cys]- Ala-Ala-Ala-Ala-Trp]] (cyclo(AAAAWCAH[dF]RWC); disulfide 6-12) |  | 35 |  |  | 0.04 nM | 1.39 nM | 0.17 nM
8 | C[C@@H]1NC(=O)[C@H](C)NC(=O)[C@@H]2CSSC[C@H](NC(=O)[C@H](Cc3c[nH]c4ccccc34)NC(=O)[C@H](C)NC(=O)[C@@H](C)NC1=O)C(=O)N[C@@H](C)C(=O)N[C@@H](Cc1c[nH]cn1)C(=O)N[C@H](Cc1ccccc1)C(=O)N[C@@H](CCCNC(=N)N)C(=O)N[C@@H](Cc1c[nH]c3ccccc13)C(=O)N2 [Chem. 88, c[c[Cys-Ala-His-D-Phe-Arg-Trp-Cys]- Ala-Ala-D-Ala-Ala-Trp]] (cyclo(AA[dA]AWCAH[dF]RWC); disulfide 6-12) |  | 66 |  |  | 0.02 nM | 1.31 nM | 0.2 nM
9 | C[C@@H]1NC(=O)[C@H](C)NC(=O)[C@H](C)NC(=O)[C@@H]2CSSC[C@H](NC(=O)[C@H](CCCNC(=N)N)NC(=O)[C@H](C)NC1=O)C(=O)N[C@@H](C)C(=O)N[C@@H](Cc1c[nH]cn1)C(=O)N[C@H](Cc1ccccc1)C(=O)N[C@@H](CCCNC(=N)N)C(=O)N[C@@H](Cc1c[nH]c3ccccc13)C(=O)N2 [Chem. 89, c[c[Cys-Ala-His-D-Phe-Arg-Trp-Cys]- Ala-Ala-Ala-Ala-Arg]] (cyclo(AAAARCAH[dF]RWC); disulfide 6-12) |  | 30 |  |  | 0.02 nM | 0.59 nM | 0.07 nM
10 | C[C@@H]1NC(=O)[C@H](C)NC(=O)[C@@H]2CSSC[C@H](NC(=O)[C@H](CCCNC(=N)N)NC(=O)[C@H](C)NC(=O)[C@@H](C)NC1=O)C(=O)N[C@@H](C)C(=O)N[C@@H](Cc1c[nH]cn1)C(=O)N[C@H](Cc1ccccc1)C(=O)N[C@@H](CCCNC(=N)N)C(=O)N[C@@H](Cc1c[nH]c3ccccc13)C(=O)N2 [Chem. 90, c[c[Cys-Ala-His-D-Phe-Arg-Trp-Cys]- Ala-Ala-D-Ala-Ala-Arg]] (cyclo(AA[dA]ARCAH[dF]RWC); disulfide 6-12) |  | 65 |  |  | 0.01 nM | 0.65 nM | 0.11 nM
11 | C[C@@H]1NC(=O)[C@@H]2CSSC[C@H](NC(=O)[C@H](CCCNC(=N)N)NC(=O)[C@H](CCCCN)NC(=O)[C@H](CCCCN)NC(=O)[C@H](CCCCN)NC1=O)C(=O)N1CCC[C@H]1C(=O)N[C@@H](Cc1c[nH]cn1)C(=O)N[C@H](Cc1ccccc1)C(=O)N[C@@H](CCCCNC(N)=O)C(=O)N[C@@H](Cc1c[nH]c3ccccc13)C(=O)N2 [Chem. 99, c[c[Cys-Pro-His-D-Phe-Cit-Trp-Cys]- Ala-Lys-Lys-Lys-Arg]] (cyclo(AKKKRCPH[dF][hCit]WC); disulfide 6-12) | 0.39 nM | 14 | 5.29 nM | 0.1 nM |  |  | 
12 | C[C@@H]1NC(=O)[C@@H]2CSSC[C@H](NC(=O)[C@H](Cc3c[nH]c4ccccc34)NC(=O)[C@H](CCCNC(=N)N)NC(=O)[C@@H](Cc3ccccc3)NC(=O)[C@H](Cc3c[nH]cn3)NC1=O)C(=O)N[C@@H](CCCCN)C(=O)N[C@@H](CCCCN)C(=O)N[C@@H](CCCCN)C(=O)N[C@@H](CCCNC(=N)N)C(=O)N2 [Chem. 101, c[c[Cys-Ala-His-D-Phe-Arg-Trp-Cys]- Lys-Lys-Lys-Arg]] (cyclo(AH[dF]RWCKKKRC); disulfide 6-11) | 0.04 nM | 5 | 0.19 nM | 0.05 nM |  |  | 
13 | C[C@@H]1NC(=O)[C@H](CCC(=O)O)NC(=O)[C@H](CCC(=O)O)NC(=O)[C@H](C)NC(=O)[C@@H]2CSSC[C@H](NC(=O)[C@H](Cc3c[nH]c4ccccc34)NC1=O)C(=O)N[C@@H](C)C(=O)N[C@@H](Cc1c[nH]cn1)C(=O)N[C@H](Cc1ccccc1)C(=O)N[C@@H](CCCNC(=N)N)C(=O)N[C@@H](Cc1c[nH]c3ccccc13)C(=O)N2 [Chem. 102, c[c[Cys-Ala-His-D-Phe-Arg-Trp-Cys]- Ala-Glu-Glu-Ala-Trp]] (cyclo(AEEAWCAH[dF]RWC); disulfide 6-12) |  | 29 |  |  | 0.49 nM | 14.3 nM | 10.1 nM
14 | C[C@@H]1NC(=O)[C@H](C)NC(=O)[C@@H]2CSSC[C@H](NC(=O)[C@H](Cc3c[nH]c4ccccc34)NC(=O)[C@H](C)NC(=O)[C@H](CCCCN)NC1=O)C(=O)N1CSC[C@H]1C(=O)N[C@@H](Cc1c[nH]cn1)C(=O)N[C@H](Cc1ccccc1)C(=O)N[C@@H](Cc1c[nH]cn1)C(=O)N[C@@H](Cc1c[nH]c3ccccc13)C(=O)N2 [Chem. 109, c[c[Cys-THAZ-His-D-Phe-His-Trp- Cys]-Ala-Ala-Lys-Ala-Trp]] (cyclo(AAKAWC[Thz]H[dF]HWC); disulfide 6-12) |  | >47 |  |  | 0.15 nM | > 7 nM | 0.3 nM
